Literature values, collected in patent US20050143343A1, “Nutritional supplement for enhancing the production and effect of natural human growth hormone” (priority 2003, published 2005).

Test system: human growth hormone secretion
Conditions: oral administration, 15 male volunteers; 1200 mg of each constituent, in combination or alone at the same doses

Question: Which “secretion (release) of human growth hormone” value does the source give for L-arginine-2-pyrrolidone-5-carboxylate here?
Answer: Neither of the two constituents resulted a significant release of human growth hormone

Question: For `Cl.NCCCC[C@H](N)C(=O)O` [L-lysine hydrochloride], which “secretion (release) of human growth hormone” value is on record?
Answer: Neither of the two constituents resulted a significant release of human growth hormone
